pEC50: −log10 of the molar value. Several values for one entry are separate records, joined by “and”; a condition that tells them apart may be missing. Identical values can stand only once.
Experiments:
ER-target genes = assay: Expression of ER-target genes (GREB1, PR); format: cell-based; settings: MCF7 and T47D
MCF7 xenograft [1] = assay: Tumor growth inhibition in orthotopic MCF7/estradiol xenograft model, single agent; format: in vivo, NOD/SCID mice; settings: for tumor growth inhibition (TGI): 28 days, vs vehicle
Protocol: Species: NOD/SCID female mice (Charles River, 6-7 weeks old upon arrival).
Animal handling: Axial mammary fat pad implantation of 5×10^6 MCF7 cells/200 per mouse (17β-estradiol 0.36 mg 90-day pellet implanted day before).
Tumor volumes were evaluated twice per week for twenty-eight days.
Sampling: Tumors were measured twice weekly. Terminal sacrifice was ˜18 hr after last dose; tumors were harvested, divided, and flash frozen. ERα levels were determined by immunoblotting.
Tumor volume calculation: Tumor Volume=(width×width×length)/2, where all measurements are in mm and the tumor volume is in mm^3.
Tumor Growth Inhibition (TGI) calculation: TGI (%)

ERα (ESR1 Y537S) = target: T1, ERα (ESR1 Y537S) (Homo sapiens, UniProt P03372, Y537S); assay: Tumor ERα levels in ESR1 (Y537S) PDX model; format: in vivo; settings: for reduction of tumor ERα levels: ESR1 (Y537S) PDX, 28 days
T1 construct: a hormone-independent patient-derived xenograft model; from tissue; host or cells: ESR1 (Y537S) patient-derived xenograft tumour grown in mice
T1 sequence (P03372 1-595 Y537S): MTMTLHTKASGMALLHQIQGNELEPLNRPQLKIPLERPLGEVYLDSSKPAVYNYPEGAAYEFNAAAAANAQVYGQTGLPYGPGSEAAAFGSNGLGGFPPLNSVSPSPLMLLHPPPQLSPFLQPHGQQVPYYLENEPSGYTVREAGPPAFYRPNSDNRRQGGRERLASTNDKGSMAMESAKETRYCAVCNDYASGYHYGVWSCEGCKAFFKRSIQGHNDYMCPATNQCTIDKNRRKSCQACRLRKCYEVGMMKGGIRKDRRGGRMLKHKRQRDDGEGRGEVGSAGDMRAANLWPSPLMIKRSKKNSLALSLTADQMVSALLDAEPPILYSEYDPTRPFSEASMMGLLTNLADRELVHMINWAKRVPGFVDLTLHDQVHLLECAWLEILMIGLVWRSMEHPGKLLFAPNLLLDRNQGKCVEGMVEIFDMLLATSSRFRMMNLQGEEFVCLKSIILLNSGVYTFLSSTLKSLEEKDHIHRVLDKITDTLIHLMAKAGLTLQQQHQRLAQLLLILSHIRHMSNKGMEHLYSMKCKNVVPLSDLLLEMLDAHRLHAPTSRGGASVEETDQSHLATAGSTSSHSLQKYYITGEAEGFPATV

T47D ESR1 D538G cells = assay: Live-cell imaging growth studies and EC50 for growth inhibition, T47D ESR1 D538G; format: cell-based; settings: Homo sapiens; T47D ESR1 D537G (so in the source); read-out: Approximate Half-maximal Effective Concentration (EC50) for growth inhibition
Protocol: MCF7, T47D, T47D ESR1 Y537S or T47D ESR1 D538G cells were seeded at 2×10^5 density per well in 6-well tissue culture-treated plates in DMEM/F12/10% FBS (2 mL total volume). […] The plate was then placed in the Incucyte® S3 Live-Cell Analysis System and images were acquired every 4 hours for a total of 5 days (120 hours). Data were analyzed using the Incucyte® Software v2020C which quantified cell surface area coverage as confluence values. Relative growth was calculated for all timepoints for all growth conditions relative to the confluence value observed for the control at 120 hours. Graphing and statistical analyses were performed using Graphpad Prism (GraphPad Software).

MCF7 xenograft [2] = assay: MCF7 orthotopic xenograft, combination with mTOR inhibitor everolimus; format: in vivo, NOD/SCID mice
Protocol: NOD/SCID female mice (Charles River, 6-7 weeks old upon arrival) were implanted with 17b-estradiol 0.72 mg 90-day pellets. The next day, each mouse was implanted with 5×10^6 MCF7 cells/[…] per in the axial mammary fat pad. Compound administration was initiated once the tumors reached 175-200 mm^3. Diet was supplemented with peanut butter to help maintain body weights. […] (FIG. 28 and Table 13).
Error bars represent standard deviation.
The ratio of Tween 80 to PEG-400 is 0.02 g Tween 80 to 1 ml PEG-400. PEG-400 is added to a pre-aliquoted volume of Tween 80. • For everolimus: 10% DMSO, 90% (2% Tween 80, PEG 400) (DMSO/PEG/Tween) Sampling: tumors were measured twice weekly. Terminal sacrifice was ˜18 hr after last dose. Tumor volume calculation: Tumor Volume=(width×width×length)/2, where all measurements are in mm and the tumor volume is in mm^3. Tumor Growth Inhibition (TGI) calculation: TGI (%)

rat uterine ER = target: T2, rat uterine ER (Rattus norvegicus, UniProt P06211); assay: Immature rat uterotrophic model; format: in vivo
T2 construct: from tissue; host or cells: uterus of immature rats
T2 sequence (P06211 1-600): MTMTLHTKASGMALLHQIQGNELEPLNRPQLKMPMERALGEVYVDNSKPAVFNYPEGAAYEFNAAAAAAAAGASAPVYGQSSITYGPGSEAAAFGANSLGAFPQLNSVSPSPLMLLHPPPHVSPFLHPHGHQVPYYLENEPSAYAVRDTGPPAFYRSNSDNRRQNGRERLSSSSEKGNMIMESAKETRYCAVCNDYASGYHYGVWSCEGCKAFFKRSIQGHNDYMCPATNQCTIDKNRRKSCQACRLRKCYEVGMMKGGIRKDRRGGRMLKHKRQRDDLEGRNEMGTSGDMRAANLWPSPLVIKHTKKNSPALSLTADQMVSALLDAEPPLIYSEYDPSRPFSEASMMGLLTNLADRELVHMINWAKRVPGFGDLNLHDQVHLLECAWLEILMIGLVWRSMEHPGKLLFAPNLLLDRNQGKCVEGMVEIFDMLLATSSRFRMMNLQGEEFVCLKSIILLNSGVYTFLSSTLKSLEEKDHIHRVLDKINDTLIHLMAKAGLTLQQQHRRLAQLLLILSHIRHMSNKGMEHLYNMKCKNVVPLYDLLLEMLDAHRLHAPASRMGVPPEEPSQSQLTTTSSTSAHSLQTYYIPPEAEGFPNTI

[3] = Compound (I-c) 30 mg/kg oral QD x 26

Compound: O=C1CC[C@H](N2Cc3cc(N4CCN(CC5CCN(c6ccc([C@@H]7c8ccc(O)cc8CC[C@@H]7c7ccccc7)cc6)CC5)CC4)ccc3C2=O)C(=O)N1 [Compound (I-c), (3S)-3-[5-[4-[[1-[4-[(1R,2S)-6-hydroxy-2-phenyl-tetralin-1-yl]phenyl]-4-piperidyl]methyl]piperazin-1-yl]-1-oxo-isoindolin-2-yl]piperidine-2,6-dione]
- expression of classically-regulated ER-target genes (ER-target genes): decreases
- Day 28 Tumor volume (mean ± SD) (MCF7 xenograft [1]; 3 mg/kg oral QD x 28): 286 ± 206 mm^3
- TGI (% vehicle) (MCF7 xenograft [1]; 3 mg/kg oral QD x 28): 85 % vehicle
- tumor growth inhibition (TGI) (MCF7 xenograft [1]; 3 mg/kg oral once daily): 85%
- Day 28 Tumor volume (mean ± SD) (MCF7 xenograft [1]; 10 mg/kg oral QD x 28): 226 ± 118 mm^3
- TGI (% vehicle) (MCF7 xenograft [1]; 10 mg/kg oral QD x 28): 98 % vehicle
- tumor growth inhibition (TGI) (MCF7 xenograft [1]; 10 mg/kg oral once daily): 98% and 94%
- Day 28 Tumor volume (mean ± SD) (MCF7 xenograft [1]; 30 mg/kg oral QD x 28): 115 ± 79 mm^3
- TGI (% vehicle) (MCF7 xenograft [1]; 30 mg/kg oral QD x 28): 124 % vehicle
- tumor growth inhibition (TGI) (MCF7 xenograft [1]; 30 mg/kg oral once daily): 124%
- reduction of tumor ERα levels (ERα (ESR1 Y537S); 10 mg/kg oral once daily): 79%
- reduction of tumor ERα levels (ERα (ESR1 Y537S); 30 mg/kg oral once daily): 88%
- mutant ER protein levels (ERα (ESR1 Y537S); ESR1 Y537S PDX, 10 mg/kg): significantly reduced
- pEC50 (T47D ESR1 D538G cells): 8.00
- Day 26 Tumor Volume (mean ± SD) (MCF7 xenograft [2]; [3]): 169 ± 77 mm^3
- TGI (% vehicle) (MCF7 xenograft [2]; [3]): 102 % vehicle
- tumor growth inhibition (TGI) (MCF7 xenograft [2]; single agent 30 mg/kg oral once daily, 26 days): 102%
- degradation of rat uterine ER (rat uterine ER): degrades
- agonist activity (uterine weight) (rat uterine ER; FIG. 17: 30 mg/kg once a day oral): no agonist activity
